Drawing on patent US11760744B2, “Fused ring compounds” (Genentech, Inc., priority 2018, dated 2023), this text covers IC50 and EC50 for 29 compounds.

The target in assay [1] is T1, K-Ras G12C (Homo sapiens, UniProt P01116, G12C). Put plainly: K-Ras G12C, SOS1, Raf RBD HTRF assay for inhibition of GTP exchange. Particulars: 18 hours preincubation with K-Ras G12C at room temperature; SOS1-mediated GTP exchange. The class given is biochemical. Further details: K-Ras G12C (residues 2-188) and SOS1 (residues 564-1049) had N-terminal 6-His; made in house; host or cells: E. coli. Here is the method:
K-Ras G12C, SOS1, Raf RBD Homogeneous Time Resolved Fluorescence (HTRF) Assay for Inhibition of GTP Exchange
After 18 hours at room temperature, the SOS1 GTP exchange factor (1.67 nM during exchange, 1.25 nM final) was added to initiate nucleotide exchange to GTP (200 μM during exchange, 150 μM final). The level of GTP exchange was assessed by addition of a Ras binding domain derived from C-Raf and the HTRF detection antibodies Tb-anti-FLAG and D2-anti-his (Cis-Bio) at 50 nM, 1 nM and 12.5 nM, respectively. After 2 hours, the ratio of 665 nm to 615 nm emission with 320 nm excitation was measured on an Envision plate reader (Perkin Elmer).
The final reaction volume was 20 μl in a ProxiPlate-384F Plus (Perkin Elmer), in buffer containing 20 mM HEPES, 150 mM NaCl, 1 mM MgCl2, 0.1% BSA, 0.03% Tween-20 and 1 mM DTT. […] HTRF data are presented below in Table 2.
In general terms: In TR-FRET formats the signal depends on donor and acceptor labels being close together.
Target sequence in this assay (P01116 2-188 isoform P01116-2 G12C): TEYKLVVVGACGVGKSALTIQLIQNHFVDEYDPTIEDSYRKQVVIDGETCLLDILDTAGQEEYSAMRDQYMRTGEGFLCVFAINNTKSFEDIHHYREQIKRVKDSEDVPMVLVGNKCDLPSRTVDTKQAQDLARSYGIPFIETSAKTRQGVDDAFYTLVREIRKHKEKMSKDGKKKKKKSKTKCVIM

The target of assay [2] is T1, K-Ras G12C. Nature of the assay: Western blot assay for in cell alkylation of K-Ras G12C (HCC1171 cells). The class given is cell-based. Also noted: endogenous in cells; host or cells: HCC1171. The note with it: 18 hours at 37° C., 7 point dose response. The protocol:
Western Blot Assay for in Cell Alkylation of K-Ras G12C
HCC1171 cells were maintained in RPMI1640 supplemented with 10% FBS. Cells were plated in a 96-well plate at 20,000 cells/well and the following day compounds were added to the cells. After 18 hours at 37° C., cells were lysed in RIPA buffer (Sigma R0278) with 0.5% SDS and protease/phosphatase inhibitor cocktail. After through mixing to enable complete lysis, the lysates were cleared by centrifugation before 20 μl was transferred from each well and combined with loading buffer and reducing agent. After heating for 10 minutes at 95° C., 15 μl of each sample was loaded onto a 4-20% Tris-Glycine gel and electrophoresed at 110V for 165 minutes in SDS-PAGE running buffer. Gels were transferred to a nitrocellulose membrane, blocked for 1 hour and stained overnight at 4° C. with primary antibody against K-Ras (polyclonal Proteintech 12063-1-AP). The membrane was then washed thoroughly and counterstained with anti-rabbit IRDye 800CW (LI-COR 926-32211) for one hour at room temperature. After final washes, the membrane was imaged on a LI-COR Odyssey CLx at medium resolution. Alkylated K-Ras was visible by an electrophoretic shift from unmodified K-Ras. To quantify this affect, the LICOR software was used to draw a rectangle over alkylated and unalkylated bands for each well and measured the total fluorescent intensity (FI) in each of these bands. The following formula was then used to calculate % alkylation: FI(alkylated)/(FI(alkylated)+FI(unalkylated))*100 for each well.
A 7 point dose response curve was used to determine the IC50 for each compound. Cell alkylation data are presented below in Table 2.
Target sequence in this assay (P01116 1-188 isoform P01116-2 G12C): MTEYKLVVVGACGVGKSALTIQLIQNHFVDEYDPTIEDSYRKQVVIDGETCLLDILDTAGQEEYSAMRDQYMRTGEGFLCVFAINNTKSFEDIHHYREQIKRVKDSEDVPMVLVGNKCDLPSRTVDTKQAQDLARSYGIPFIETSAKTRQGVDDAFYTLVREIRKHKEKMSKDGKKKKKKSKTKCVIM
In general terms: Immunoblotting shows a protein as a band on a membrane.

Where only a bound is given, the exact number is not on record here.

With `C=CC(=O)N1CCN(c2ncnc3c2CC[C@H](c2c(F)c(N)cc(F)c2C(F)(F)F)C3)CC1` (single isomer, unassigned) [Example 13b], at K-Ras G12C [1], the IC50 (usually the concentration that inhibits the measured activity by half) is 84 nM. Further, at K-Ras G12C [2], it took 690 nM to reach a half-maximal effect (EC50).
The compound `COc1ccc(CN(Cc2ccc(OC)cc2)c2cc(C)c(I)c([C@@H]3Cc4nc(OC[C@@H]5CCCN5C)nc(N5CCN(C(=O)OC(C)(C)C)C[C@@H]5C)c4C[C@H]3C)c2F)cc1` (single isomer, unassigned) [Example 14a] yielded an IC50 on K-Ras G12C [1] greater than 50000 nM. Moreover, the EC50 – broadly, the concentration needed to bring the measured effect to its halfway point – on K-Ras G12C [2] was found to be 1000 nM.
With `COc1ccc(CN(Cc2ccc(OC)cc2)c2cc(C)c(I)c([C@H]3Cc4nc(OC[C@@H]5CCCN5C)nc(N5CCN(C(=O)OC(C)(C)C)C[C@@H]5C)c4C[C@@H]3C)c2F)cc1` (single isomer, unassigned) [Example 14b], the IC50 against K-Ras G12C [1] was greater than 50000 nM. The same compound came in with a concentration giving a half-maximal response (EC50) on K-Ras G12C [2] of 1000 nM.
The corresponding values for `C=CC(=O)N1CCN(c2ncnc3c2C[C@@H](C)[C@H](c2c(C)ccc4[nH]ncc24)C3)CC1` (single isomer, unassigned) [Example 15a] are 68 nM and 430 nM.
Regarding `C=CC(=O)N1CCN(c2ncnc3c2C[C@H](C)[C@@H](c2c(C)ccc4[nH]ncc24)C3)CC1` (single isomer, unassigned) [Example 15b], the IC50 at K-Ras G12C [1] amounted to 8600 nM. At K-Ras G12C [2], this compound registered an EC50 of 30000 nM.
`CNC/C=C/C(=O)N1CCN(c2ncnc3c2C[C@@H](C)[C@H](c2c(C)ccc4[nH]ncc24)C3)CC1` (single isomer, unassigned) [Example 19a] returned an IC50 against K-Ras G12C [1] of 930 nM. This compound yielded an EC50 at K-Ras G12C [2] of 12000 nM.
The corresponding values for `C=CC(=O)N1CCN(c2nc(OC[C@@H]3CCCN3C)nc3c2C[C@H](C)[C@@H](c2nc(N)cc(C)c2C(F)(F)F)C3)CC1` (single isomer, unassigned) [Example 20b] are 1400 nM and 2100 nM.
The corresponding values for `C=CC(=O)N1CCN(c2nc(OC[C@@H]3CCCN3C)nc3c2C[C@H](C)[C@@H](c2nc(N)cc(C)c2C(F)(F)F)C3)[C@@H](C)C1` (single isomer, unassigned) [Example 21a] are 1100 nM and 2300 nM.
The corresponding values for `C=CC(=O)N1CCN(c2nc(OC[C@@H]3CCCN3C)nc3c2C[C@H](C)[C@@H](c2cc(O)cc4ccccc24)C3)[C@@H](C)C1` (single isomer, unassigned) [Example 22a] are 20 nM and 100 nM.
In turn, `C=CC(=O)N1CCN(c2nc(OC[C@@H]3CCCN3C)nc3c2C[C@H](C)[C@@H](c2c(C(F)(F)F)ccc(N)c2F)C3)[C@@H](C)C1` (single isomer, unassigned) [Example 23a] showed an IC50 at K-Ras G12C [1] of 720 nM. The EC50 on K-Ras G12C [2] is 1000 nM.
Turning to `C=CC(=O)N1CCN(c2nc(OC[C@@H]3C[C@@H](F)CN3C)nc3c2C[C@@H](C)[C@H](c2nc(N)cc(C)c2C2CC2)C3)[C@@H](C)C1` (single isomer, unassigned) [Example 24b], on K-Ras G12C [1], the IC50 is 21 nM. This compound registered an EC50 on K-Ras G12C [2] of 490 nM.
For the compound `C=CC(=O)N1CCN(c2ncnc3c2CC[C@H](c2c(F)c(N)cc(C)c2C(F)(F)F)C3)CC1` (single isomer, unassigned) [Example 27a], the IC50 on K-Ras G12C [1] came to 89 nM. The compound also showed an EC50 on K-Ras G12C [2] of 340 nM.
Regarding `C=CC(=O)N1CCN(c2nc(OC[C@@H]3CCCN3C)nc3c2CC[C@@H](c2cc(O)cc4ccccc24)C3)[C@@H](C)C1` (single isomer, unassigned) [Example 28a], inhibition against K-Ras G12C [1] was half-maximal at 130 nM (IC50). The EC50 on K-Ras G12C [2] is 1000 nM.
At K-Ras G12C [1], `C=CC(=O)N1CCN(c2nc(OC[C@@H]3CCCN3C)nc3c2CCC(c2cc(O)cc4ccccc24)C3)[C@@H](CO)C1` (single isomer, unassigned) [Example 29a] showed an IC50 of 530 nM. The same compound displayed an EC50 on K-Ras G12C [2] of 9300 nM.
As to `C=CC(=O)N1CCN(c2nc(OC[C@@H]3CCCN3C)nc3c2CCC(c2cc(O)cc4ccccc24)C3)[C@@H](CO)C1` (single isomer, unassigned) [Example 29b], the IC50 at K-Ras G12C [1] is less than 10 nM. The same compound gave an EC50 at K-Ras G12C [2] of 330 nM.
The compound `C=CC(=O)N1CCN(c2nc(OC[C@@H]3C[C@H](F)CN3C)nc3c2CC[C@H](c2cc(O)cc4ccccc24)C3)[C@@H](C)C1` (single isomer, unassigned) [Example 30a] gave an IC50 on K-Ras G12C [1] of 11 nM. This compound also yielded an EC50 on K-Ras G12C [2] of 40 nM.
The corresponding values for `C=CC(=O)N1CCN(c2nc(OC[C@@H]3C[C@@H](F)CN3C)nc3c2CC[C@@H](c2cc(O)cc4ccccc24)C3)[C@@H](C)C1` (single isomer, unassigned) [Example 31b] are 250 nM and 2000 nM.
The corresponding values for `C=CC(=O)N1C[C@H](C)N(c2nc(OC[C@@H]3CCCN3C)nc3c2C[C@@H](C)[C@H](c2cc(O)cc4ccccc24)C3)[C@@H](C)C1` (single isomer, unassigned) [Example 32a] are less than 10 nM and 120 nM.
The corresponding values for `C=CC(=O)N1C[C@H](C)N(c2nc(OC[C@@H]3CCCN3C)nc3c2C[C@H](C)[C@@H](c2cc(O)cc4ccccc24)C3)[C@@H](C)C1` (single isomer, unassigned) [Example 32b] are 56 nM and 920 nM.
At K-Ras G12C [1], `C=CC(=O)N1CCN(c2nc(OC[C@@H]3CCCN3C)nc3c2C[C@@H](C(C)C)[C@H](c2nc(N)cc(C)c2C(F)(F)F)C3)[C@@H](C)C1` (single isomer, unassigned) [Example 33a] returned an IC50 of less than 10 nM. This compound also registered an EC50 at K-Ras G12C [2] of 51 nM.
In turn, `C=CC(=O)N1CCN(c2nc(OC[C@@H]3CCCN3C)nc3c2C[C@H](C(C)C)[C@@H](c2nc(N)cc(C)c2C(F)(F)F)C3)[C@@H](C)C1` (single isomer, unassigned) [Example 33b] showed an IC50 against K-Ras G12C [1] of 300 nM. This compound had an EC50 on K-Ras G12C [2] of 2200 nM.
The corresponding values for `C=C(F)C(=O)N1CCN(c2nc(OC[C@@H]3CCCN3C)nc3c2CC(C)C(c2c(F)c(N)cc(C)c2C(F)(F)F)C3)CC1CC#N` (single isomer, unassigned) [Example 34a] are 8900 nM and greater than 3000 nM.
The corresponding values for `C=C(F)C(=O)N1CCN(c2nc(OC[C@@H]3CCCN3C)nc3c2C[C@H](C)[C@@H](c2c(F)c(N)cc(C)c2C(F)(F)F)C3)C[C@H]1CC#N` (single isomer, unassigned) [Example 34b] are 680 nM and 1200 nM.
Regarding `C=CC(=O)N1CCN(c2nc(OC[C@@H]3CCCN3C)nc3c2C[C@H](C)[C@@H](c2cccc4c2CCC4)C3)C[C@H]1CC#N` (single isomer, unassigned) [Example 35a], the IC50 against K-Ras G12C [1] is 190 nM. The compound also registered an EC50 on K-Ras G12C [2] of 550 nM.
With `C=CC(=O)N1CCN(c2nc(OC[C@@H]3CCCN3C)nc3c2C[C@H](C)[C@@H](c2cccc4c2CCC4)C3)C[C@@H]1CC#N` (single isomer, unassigned) [Example 35c], the IC50 on K-Ras G12C [1] was determined as 22 nM. This compound also gave an EC50 at K-Ras G12C [2] of 46 nM.
For `C=CC(=O)N1CCN(c2nc(OC[C@@H]3C[C@@H](F)CN3C)nc3c2C[C@H](C)[C@@H](c2c(F)c(N)cc(C)c2C(F)(F)F)C3)[C@@H](C)C1` (single isomer, unassigned) [Example 36a], inhibition on K-Ras G12C [1] was half-maximal at 360 nM (IC50). For the same compound, the EC50 on K-Ras G12C [2] worked out at 270 nM.
The corresponding values for `C=CC(=O)N1CCN(c2nc(OC[C@@H]3C[C@@H](F)CN3C)nc3c2C[C@H](CC)[C@@H](c2c(F)c(N)cc(C)c2C(F)(F)F)C3)[C@@H](C)C1` (single isomer, unassigned) [Example 37b] are 2200 nM and 1000 nM.
The corresponding values for `C=C(F)C(=O)N1CCN(c2nc(OC[C@@H]3C[C@@H](F)CN3C)nc3c2C[C@H](C)[C@@H](c2c(F)c(N)cc(C)c2C(F)(F)F)C3)C[C@H]1CC#N` (single isomer, unassigned) [Example 38a] are 3600 nM and 1000 nM.
As for `C=C(F)C(=O)N1CCN(c2nc(OC[C@@H]3C[C@@H](F)CN3C)nc3c2C[C@H](C)[C@@H](c2c(F)c(N)cc(C)c2C(F)(F)F)C3)C[C@@H]1CC#N` (single isomer, unassigned) [Example 38d], the IC50 against K-Ras G12C [1] amounted to 1700 nM. This compound also yielded an EC50 at K-Ras G12C [2] of 1000 nM.
